Data: patent US20260378560A1, “APPROACHES TO DESIGNING AND PERFORMING COMPRESSED BIOLOGICAL EXPERIMENTS AND SYSTEMS FOR IMPLEMENTING THE SAME” (EXVIVO LABS INC., priority 2023, published 2026)

tested on: REH; experiment: Cell viability (CellTiter Glo), compressed perturbation pools with informed pool design, MAX-based deconvolution, REH; settings: REH, None (measured individually), informed pool design table;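 also: higher DRS means a larger drug effect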
Method: (§1) Total cell viability was measured for each sample using an ATP-based luminescence assay (i.e., CellTiter Glo). Each cancer drug was then screened at multiple concentrations ranging from one nM to ten μM in order to generate a dose-response curve and calculate a DRS for each cancer cell line.
(§2) Each cancer drug was cultured with target cells individually. At the end of the screen, samples were either analyzed individually or compressed into pools for analysis. The library was compressed alphabetically into ten cohorts, each of which contained seven cancer drugs present in three out of the seven pools, as shown in Table VII. Said another way, the screening platform 210 generated a “7 pick 3” compressed library by assigning the cancer drugs among different pools. […] The library was also compressed into ten cohorts with pools designed based on information known about each cancer drug, as shown in Table VIII. After cell viability measurement and DRS calculation, the DRS of each cancer drug in the samples generated based on the pools were deconvoluted and compared to the DRS for each cancer drug measured individually.
(§3) In parallel to the exemplary sample compression screen covered in Table VII, perturbations were compressed into pools and then screened. The pools were designed using drug class as a feature with two compression rules (or simply “rules”). The first rule required that drugs from the same class be separated into different cohorts (i.e., mutually exclusive groups of pools). […] A benefit of compressing perturbations is the ability to measure additive, antagonistic, and synergistic effects between drugs in the same pool. However, these effects can negatively impact deconvolution of individual drug effects. Therefore, combinations of drugs for which evidence of clinical toxicity exists can be assigned to different pools in accordance with an informed pooling operation. As new preclinical or clinical evidence of toxic combinations becomes available, the rules implemented by the screening platform 210—and more specifically, its algorithm for compressing members of a library—can be updated accordingly.
(§4) In MAX-based deconvolution, an assumption of neutrality between the compressed perturbations is made. In other words, the perturbation with the largest effect is assumed to be masking the effects, if any, of the other perturbations in the pool. For SUM- and MAX-based deconvolution, qualitative deconvolution is first performed to rank the perturbations in each pool based on size of expected effect. Qualitative deconvolution, as described above, ranks the perturbations in a pool from largest effect size to smallest effect size. The ranking is based on the overlap of each perturbation's unique subset of pools with the highest and lowest measured pools. The perturbation with the largest effect is expected to be present in the pools with the highest measured signal or corresponding metric (e.g., DRS), while the perturbation with the smallest effect is expected to be present in the pools with the lowest measured signal or corresponding metric (e.g., DRS).
(§5) For MAX-based deconvolution, the highest ranked perturbation in the rank order is first assigned an effect size based on the pool with the lowest measured signal or corresponding metric (e.g., DRS) that it is present in. Said another way, the screening platform 210 can identify the highest ranked perturbation in the rank order and then assign an effect size based on the measured signal or corresponding metric (e.g., DRS) of the “weakest” pool in which the highest ranked perturbation is included. The screening platform 210 can repeat this step for the next highest ranked perturbation, and so on until the measurements for each pool have been assigned to one of the perturbations. The effects for the remaining perturbations can be assigned a value of zero, since it is assumed that their effect is masked by the perturbation with the largest effect in each pool.

SMILES	DRS
O=C(c1ccc(F)c(F)c1Nc1ccc(I)cc1F)N1CC(O)([C@@H]2CCCCN2)C1 [Cobimetinib]	0.00
C[C@]12CC[C@@H]3c4ccc(O)cc4C[C@@H](CCCCCCCCC[S+]([O-])CCCC(F)(F)C(F)(F)F)[C@H]3[C@@H]1CC[C@@H]2O (some centres unmarked) [Fulvestrant]	0.00
C[C@H]1Oc2cc(cnc2N)-c2c(nn(C)c2C#N)CN(C)C(=O)c2ccc(F)cc21 [Lorlatinib]	0.00
C[C@@H]1CCN(C(=O)CC#N)C[C@@H]1N(C)c1ncnc2[nH]ccc12 [Tofacitinib]	3.15
Cn1cnc2c(F)c(Nc3ccc(Br)cc3Cl)c(C(=O)NOCCO)cc21 [Selumetinib]	3.91
O=C(CCCCCCC(=O)Nc1ccccc1)NO [Vorinostat]	2.01
Cc1ccc(C(=O)Nc2ccc(CN3CCN(C)CC3)c(C(F)(F)F)c2)cc1C#Cc1cnc2cccnn12 [Ponatinib]	0.84

same assay, conditions: REH, Samples, 7 Pick 3 informed perturbation pools

SMILES	DRS from MAX-based deconvolution
O=C(c1ccc(F)c(F)c1Nc1ccc(I)cc1F)N1CC(O)([C@@H]2CCCCN2)C1 [Cobimetinib]	0.00
C[C@]12CC[C@@H]3c4ccc(O)cc4C[C@@H](CCCCCCCCC[S+]([O-])CCCC(F)(F)C(F)(F)F)[C@H]3[C@@H]1CC[C@@H]2O (some centres unmarked) [Fulvestrant]	0.00
C[C@H]1Oc2cc(cnc2N)-c2c(nn(C)c2C#N)CN(C)C(=O)c2ccc(F)cc21 [Lorlatinib]	0.00
C[C@@H]1CCN(C(=O)CC#N)C[C@@H]1N(C)c1ncnc2[nH]ccc12 [Tofacitinib]	4.06
Cn1cnc2c(F)c(Nc3ccc(Br)cc3Cl)c(C(=O)NOCCO)cc21 [Selumetinib]	4.43
O=C(CCCCCCC(=O)Nc1ccccc1)NO [Vorinostat]	0.00
Cc1ccc(C(=O)Nc2ccc(CN3CCN(C)CC3)c(C(F)(F)F)c2)cc1C#Cc1cnc2cccnn12 [Ponatinib]	0.00

tested on: REH; experiment: Cell viability (CellTiter Glo), library of cancer drugs, individual or sample compression with randomized (alphabetical) pools, REH; assay type: cell-based; settings: REH, None (measured individually)
Method: as §1, §2
(§6) In SUM-based deconvolution, an assumption of additivity is used to quantify the individual effects of each perturbation on each target. Additivity implies that each perturbation effect on each target is positively contributing to the overall effect measured for that pool. This is an accurate assumption for certain experiments, such as when targets or samples are compressed. When targets are pooled—or when samples containing different targets are pooled—the effect of each perturbation on each individual target is diluted. In other words, each perturbation has an isolated effect on a target in culture, and the sum total of the isolated effects are measured when pooled. Therefore, SUM-based deconvolution breaks down the sum total measured for a pool and assigns estimated fractional effects to each compressed perturbation or target in the pool. The screening platform 210 used SUM-based deconvolution for all target and sample compression experiments described above.

SMILES	DRS
O=C(c1ccc(F)c(F)c1Nc1ccc(I)cc1F)N1CC(O)([C@@H]2CCCCN2)C1 [Cobimetinib]	0.00
C[C@]12CC[C@@H]3c4ccc(O)cc4C[C@@H](CCCCCCCCC[S+]([O-])CCCC(F)(F)C(F)(F)F)[C@H]3[C@@H]1CC[C@@H]2O (some centres unmarked) [Fulvestrant]	0.21
C[C@H]1Oc2cc(cnc2N)-c2c(nn(C)c2C#N)CN(C)C(=O)c2ccc(F)cc21 [Lorlatinib]	0.00
C[C@@H]1CCN(C(=O)CC#N)C[C@@H]1N(C)c1ncnc2[nH]ccc12 [Tofacitinib]	0.20
Cn1cnc2c(F)c(Nc3ccc(Br)cc3Cl)c(C(=O)NOCCO)cc21 [Selumetinib]	0.00
O=C(CCCCCCC(=O)Nc1ccccc1)NO [Vorinostat]	12.12
Cc1ccc(C(=O)Nc2ccc(CN3CCN(C)CC3)c(C(F)(F)F)c2)cc1C#Cc1cnc2cccnn12 [Ponatinib]	4.42

same assay, conditions: REH, Samples, 7 Pick 3 randomized (alphabetical) sample pools

SMILES	DRS from deconvolution
O=C(c1ccc(F)c(F)c1Nc1ccc(I)cc1F)N1CC(O)([C@@H]2CCCCN2)C1 [Cobimetinib]	0.00
C[C@]12CC[C@@H]3c4ccc(O)cc4C[C@@H](CCCCCCCCC[S+]([O-])CCCC(F)(F)C(F)(F)F)[C@H]3[C@@H]1CC[C@@H]2O (some centres unmarked) [Fulvestrant]	0.00
C[C@H]1Oc2cc(cnc2N)-c2c(nn(C)c2C#N)CN(C)C(=O)c2ccc(F)cc21 [Lorlatinib]	0.00
C[C@@H]1CCN(C(=O)CC#N)C[C@@H]1N(C)c1ncnc2[nH]ccc12 [Tofacitinib]	0.00
Cn1cnc2c(F)c(Nc3ccc(Br)cc3Cl)c(C(=O)NOCCO)cc21 [Selumetinib]	0.00
O=C(CCCCCCC(=O)Nc1ccccc1)NO [Vorinostat]	12.11
Cc1ccc(C(=O)Nc2ccc(CN3CCN(C)CC3)c(C(F)(F)F)c2)cc1C#Cc1cnc2cccnn12 [Ponatinib]	3.86

tested on: MOLT-4; experiment: Cell viability (CellTiter Glo), library of cancer drugs, individual or sample compression with randomized (alphabetical) pools, MOLT-4; assay type: cell-based; settings: MOLT-4, None (measured individually)
Method: as §1, §2, §6

SMILES	DRS
O=C(c1ccc(F)c(F)c1Nc1ccc(I)cc1F)N1CC(O)([C@@H]2CCCCN2)C1 [Cobimetinib]	0.00
C[C@]12CC[C@@H]3c4ccc(O)cc4C[C@@H](CCCCCCCCC[S+]([O-])CCCC(F)(F)C(F)(F)F)[C@H]3[C@@H]1CC[C@@H]2O (some centres unmarked) [Fulvestrant]	0.01
C[C@H]1Oc2cc(cnc2N)-c2c(nn(C)c2C#N)CN(C)C(=O)c2ccc(F)cc21 [Lorlatinib]	0.00
C[C@@H]1CCN(C(=O)CC#N)C[C@@H]1N(C)c1ncnc2[nH]ccc12 [Tofacitinib]	0.00
Cn1cnc2c(F)c(Nc3ccc(Br)cc3Cl)c(C(=O)NOCCO)cc21 [Selumetinib]	0.40
O=C(CCCCCCC(=O)Nc1ccccc1)NO [Vorinostat]	13.42
Cc1ccc(C(=O)Nc2ccc(CN3CCN(C)CC3)c(C(F)(F)F)c2)cc1C#Cc1cnc2cccnn12 [Ponatinib]	6.12

same assay, conditions: MOLT-4, Samples, 7 Pick 3 randomized (alphabetical) sample pools

SMILES	DRS from deconvolution
O=C(c1ccc(F)c(F)c1Nc1ccc(I)cc1F)N1CC(O)([C@@H]2CCCCN2)C1 [Cobimetinib]	0.00
C[C@]12CC[C@@H]3c4ccc(O)cc4C[C@@H](CCCCCCCCC[S+]([O-])CCCC(F)(F)C(F)(F)F)[C@H]3[C@@H]1CC[C@@H]2O (some centres unmarked) [Fulvestrant]	0.00
C[C@H]1Oc2cc(cnc2N)-c2c(nn(C)c2C#N)CN(C)C(=O)c2ccc(F)cc21 [Lorlatinib]	0.00
C[C@@H]1CCN(C(=O)CC#N)C[C@@H]1N(C)c1ncnc2[nH]ccc12 [Tofacitinib]	0.00
Cn1cnc2c(F)c(Nc3ccc(Br)cc3Cl)c(C(=O)NOCCO)cc21 [Selumetinib]	0.00
O=C(CCCCCCC(=O)Nc1ccccc1)NO [Vorinostat]	13.67
Cc1ccc(C(=O)Nc2ccc(CN3CCN(C)CC3)c(C(F)(F)F)c2)cc1C#Cc1cnc2cccnn12 [Ponatinib]	6.51

tested on: MOLT-4; experiment: Cell viability (CellTiter Glo), compressed perturbation pools with informed pool design, MAX-based deconvolution, MOLT-4; settings: MOLT-4, None (measured individually), informed pool design table;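 also: higher DRS means a larger drug effect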
Method: as §1, §2, §3, §4, §5

SMILES	DRS
O=C(c1ccc(F)c(F)c1Nc1ccc(I)cc1F)N1CC(O)([C@@H]2CCCCN2)C1 [Cobimetinib]	1.60
C[C@]12CC[C@@H]3c4ccc(O)cc4C[C@@H](CCCCCCCCC[S+]([O-])CCCC(F)(F)C(F)(F)F)[C@H]3[C@@H]1CC[C@@H]2O (some centres unmarked) [Fulvestrant]	0.00
C[C@H]1Oc2cc(cnc2N)-c2c(nn(C)c2C#N)CN(C)C(=O)c2ccc(F)cc21 [Lorlatinib]	0.00
C[C@@H]1CCN(C(=O)CC#N)C[C@@H]1N(C)c1ncnc2[nH]ccc12 [Tofacitinib]	2.96
Cn1cnc2c(F)c(Nc3ccc(Br)cc3Cl)c(C(=O)NOCCO)cc21 [Selumetinib]	2.74
O=C(CCCCCCC(=O)Nc1ccccc1)NO [Vorinostat]	1.84
Cc1ccc(C(=O)Nc2ccc(CN3CCN(C)CC3)c(C(F)(F)F)c2)cc1C#Cc1cnc2cccnn12 [Ponatinib]	0.24

same assay, conditions: MOLT-4, Samples, 7 Pick 3 informed perturbation pools

SMILES	DRS from MAX-based deconvolution
O=C(c1ccc(F)c(F)c1Nc1ccc(I)cc1F)N1CC(O)([C@@H]2CCCCN2)C1 [Cobimetinib]	1.60
C[C@]12CC[C@@H]3c4ccc(O)cc4C[C@@H](CCCCCCCCC[S+]([O-])CCCC(F)(F)C(F)(F)F)[C@H]3[C@@H]1CC[C@@H]2O (some centres unmarked) [Fulvestrant]	0.00
C[C@H]1Oc2cc(cnc2N)-c2c(nn(C)c2C#N)CN(C)C(=O)c2ccc(F)cc21 [Lorlatinib]	0.00
C[C@@H]1CCN(C(=O)CC#N)C[C@@H]1N(C)c1ncnc2[nH]ccc12 [Tofacitinib]	0.00
Cn1cnc2c(F)c(Nc3ccc(Br)cc3Cl)c(C(=O)NOCCO)cc21 [Selumetinib]	3.41
O=C(CCCCCCC(=O)Nc1ccccc1)NO [Vorinostat]	0.00
Cc1ccc(C(=O)Nc2ccc(CN3CCN(C)CC3)c(C(F)(F)F)c2)cc1C#Cc1cnc2cccnn12 [Ponatinib]	0.00
